# According to patent US8242082B2, “Antibacterial peptide” (Seikagaku Corporation, priority 2004, dated 2012):
# “Also recorded” adds a separate entry of the source. No end group written: not given here.
# Key:
# [1] = tested on: binding between LPS and RAW 246.7 cells; test: Determination of LPS-cell-binding inhibitory effect (Alexa 488-labeled LPS, FACS); format: cell-based; details: for LPS-cell-binding inhibitory effect: RAW 246.7 cells, Alexa 488-labeled LPS 100 ng/mL; for LPS-cell-binding inhibitory effect, comparison among test substances: relative ranking from the figures
# Method: RAW 246.7 cells (macrophage cell strain) were cultured by use of an RPMI 1640 medium containing 10% FCS and collected. The collected cells were diluted with the same medium so that the cell concentration was adjusted to 5×10^5/mL. To the diluted liquid (500 μL), a test substance (5 μL) was added, and the mixture was subjected to shaking culture at 37° C. for 10 minutes. Subsequently, LPS that had been labeled with Alexa 488 (final concentration: 100 ng/mL) was added to the culture, and the mixture was subjected to shaking culture at 37° C. for 15 minutes. The collected cells were washed with PBS (3 mL×2) and suspended again in PBS (300 μL). Binding of Alexa 488-labeled LPS was measured through FACS. Control samples (a sample containing no labeled LPS (background) and an antibacterial-peptide-free sample (maximum LPS binding degree) were treated similarly, and the degree of the inhibitory effect on binding between LPS and RAW 246.7 cells was determined on the basis of comparison with control samples.
# In a manner similar to that of the aforementioned <2-2>, the LPS-cell-binding inhibitory effect of the same test substances was determined. […] In FIG. 7, the test results of 1-18, 1-18m, and 1-18 m2 are represented by white dots, black dots, and black squares, respectively (X-axis: test substance concentration, Y-axis: percent binding of LPS to cells).
# [2] = tested on: E. coli, S. aur, MSSA, and MRSA; test: Determination of antibacterial (bacteriocidal) effect, Alamar Blue; format: cell-based, Escherichia coli; Staphylococcus aureus; details: for antibacterial effect: gram-negative and gram-positive bacteria, 37° C. for six hours, absorbance difference with Alamar Blue; for antibacterial effect, comparison among test substances: relative ranking from the figures
# Method: Each of E. coli, S. aur, MSSA, and MRSA was subjected to shaking culture overnight at 37° C. by use of a Muller-Hinton medium (product of DIFCO), and the cells precipitated through centrifugation were separated and washed with a Phenol Red-free RPMI 1640 medium. Strains of E. coli, S. aur, MSSA, and MRSA were prepared so that the cell concentrations were adjusted to 1×10^8 CFU/mL, 2×10^8 CFU/mL, 2×10^8 CFU/mL, and 2×10^8 CFU/mL, respectively, the concentrations being determined from the corresponding absorbance values at 650 nm by means of a spectrophotometer.
# By use of a 96-well plate, each cell suspension (1×10^6 CFU/mL) (100 μL), a test substance (10 μL), an RPMI 1640 medium (70 μL), and an Alamar Blue reagent (product of BIOSOURCE) (20 μL) were admixed. In the presence of Alamar Blue, pink fluorescence attributed to live cells is observed, whereas the admixture remains blue when the cells are dead.
# Each admixture was incubated at a constant temperature of 37° C. for six hours, and the difference between absorbance at 560 nm and that at 595 nm was obtained.
# The procedure of the aforementioned <2-1> was repeated, except that 1-18, 1-18m, and 1-18 m2 were tested and the difference between absorbance at 550 nm and that at 590 nm was measured, to thereby determine the antibacterial effect of the test substances with respect to each of E. coli, S. aur, MSSA, and MRSA. […] In FIG. 6, the test results of 1-18 are represented by “CAP11,” and the black dots, white dots, black squares, and white squares denote the antibacterial effects to E. coli, S. aur, MSSA, and MRSA, respectively (X-axis: test substance concentration, Y-axis: difference between absorbance at 550 nm and that at 590 nm).
# [3] = tested on: Candida albicans (CA53133 strain); test: Determination of antibacterial (bacteriocidal) effect (antifungal effect) to fungi, Alamar Blue; format: cell-based; details: for antibacterial (bacteriocidal) effect to fungi: Candida albicans, 35° C. for fourteen hours
# Method: Candida albicans (CA53133 strain) was grown in Sabouraud dextrose agar. Colonies formed in the agar were collected and suspended to serum-free and Phenol Red-free RPM11640 liquid medium (SIGMA). The concentration of cells in the medium was determined from the corresponding absorbance value at 550 nm by means of spectrophotometer, and the concentration is adjusted to 0.5−2.5×10^4 CFU/mL. By use of a 96-well plate, each cell suspension (0.5-2.5×10^4 CFU/mL) (20 μL), a test substance (CAP11, 1-18 or 1-18 m2) (10 μL), an RPMI 1640 liquid medium (150 μL), and an Alamar Blue reagent (product of BIOSOURCE) (20 μL) were admixed. Each admixture was incubated at a constant temperature of 35° C. for fourteen hours, and the difference between absorbance at 550 nm and that at 595 nm was obtained.
Substance,LPS-cell-binding inhibitory effect [1],antibacterial effect [2],antibacterial (bacteriocidal) effect to fungi [3],"LPS-cell-binding inhibitory effect, comparison among test substances [1]","antibacterial effect, comparison among test substances [2]","antifungal effect, comparison among test substances ([3]; relative ranking from FIG. 8)"
"9-26: partial peptide, 9th to 26th amino acid residues of the CAP11 monomer",an LPS-cell-binding inhibitory effect,exhibited an antibacterial effect,,,,
"16-33: partial peptide, 16th to 33th amino acid residues of the CAP11 monomer (LGRKIGKTGRKVWKAWRE; A partial peptide of CAP11)",an LPS-cell-binding inhibitory effect,exhibited an antibacterial effect,,,,
GLRKKFRKTRKRIQKLGR [1-18],exhibit an LPS-cell-binding inhibitory effect,exhibited an antibacterial effect; also recorded: exhibit an antibacterial (bacteriocidal) effect,exhibit an antibacterial (bacteriocidal) effect to fungi,most potent; also recorded: then 1-18,most potent antibacterial effect; also recorded: then 1-18,
GLRKLFRKLLKLIQKLLR [1-18m],exhibit an LPS-cell-binding inhibitory effect,exhibit an antibacterial (bacteriocidal) effect,,,,
"KLRKLFRKLLKLIRKLLR [1-18 m2, synthesized and substituted form of CAP11 (1-18)]",exhibit an LPS-cell-binding inhibitory effect,exhibit an antibacterial (bacteriocidal) effect,exhibit an antibacterial (bacteriocidal) effect to fungi,strongest effect,strongest antibacterial effect,strongest antifungal effect
monomer: CAP11 monomer having 43 amino acid units and no cysteine disulfide bond (GLRKKFRKTRKRIGKLGRKIGKTGRKVWKAWREYGQIPYPCRI; A partial peptide of CAP11) [reference compound],an LPS-cell-binding inhibitory effect,exhibited an antibacterial effect,exhibit an antibacterial (bacteriocidal) effect to fungi,No significant difference,,
